Data from US20090197900A1, “METHODS OF TREATING HEART FAILURE AND RENAL DYSFUNCTION IN INDIVIDUALS WITH AN ADENOSINE A1 RECEPTOR ANTAGONIST” (priority 2007, published 2009).

System: subjects with acute CHF and renal impairment having BNP levels above 500 pg/mL
Test: Separate analysis of the Example 1 trial for subjects with BNP levels exceeding 500 pg/mL (BNP subgroup)
Type: in vivo, human
Conditions: 30 mg KW-3902, FIG. 14
Procedure: More than 300 subjects hospitalized due to acute CHF requiring intravenous diuretic therapy to treat fluid overload, and presenting with creatinine clearance values between 20 to 80 mL/min were identified. The subjects were randomized to receive either placebo, or 10 mg, 20 mg or 30 mg intravenous KW-3902 per day. The subjects' BNP levels, NT-Pro-BNP, serum creatinine, weight, and NYHA Class were measured.
On day 1, KW-3902 (or placebo) was co-administered with intravenous furosemide (LASIX™). The specified dose of KW-3902 (or placebo) was infused over a four hour time period. Subjects received therapy for up to three days. Serum creatinine, weight, dyspnea, and worsening heart failure were assessed daily by the investigator on days 1 through 14. Worsening heart failure was investigator determined and required an increase in dose or reinstitution of LASIX, mechanical respiratory or circulatory assist measures, administration of intravenous positive […], or administration of intravenous vasodilators.
To compare the therapeutic effect of KW-3902 on individuals with different levels of BNP and or NT-Pro-BNP, the results of the trial discussed in Example 1 were separately analyzed to distinguish subjects with BNP levels exceeding 500 pg/mL. Approximately 75% of the subjects described in Example 1 fell within the subgroup having BNP levels above 500 pg/mL. […]

CCCn1c(=O)c2[nH]c(C34CC5CC(CC3C5)C4)nc2n(CCC)c1=O [KW-3902, 8-(3-noradamantyl)-1,3-dipropylxanthine]
individuals characterized as modified "Success": greater than 65%
